In EP4119948A1, “METHOD FOR STRATIFICATION AND TREATMENT OF MULTIPLE SCLEROSIS” (Universität Zürich, priority 2021, dated 2023):

Experiments:
[1] = system: CSF-infiltrating CD4+ T cells; assay: Proliferative response (3H-thymidine, stimulation index) of PHA-expanded CSF-infiltrating CD4+ T cells to peptides presented by autologous PBMCs; assay type: cell-based, human; conditions: peptide 10 µM, 72 h, 105 MS patients
Procedure: (§1) PBMCs were freshly isolated using Ficoll (Eurobio, Germany) density gradient centrifugation. CSF-infiltrating CD4^+ T cells were expanded with PHA in a single round of stimulation using a previously reported protocol aimed to reduce TCR repertoire bias (Planas et al., […], Sci Transl Med, 10(462):eaat4301). 6 × 10^4 PHA-expanded CSF-infiltrating CD4^+ T cells were seeded in quadruplicate with 2 × 10^5 irradiated autologous PBMCs as antigen presenting cells and stimulated with peptides (Table 2) at a final concentration of 10 µM and with a T Cell Activation Kit (anti-CD3, anti-CD28, anti-CD2 beads) (Miltenyi Biotec) as positive control. Table 2. GDP-L-FS, myelin and CEF Peptides (amino acid sequences)
Proliferation was measured 72 h after stimulation using 3H-thymidine (Hartmann Analytic, Braunschweig, Germany) as previously reported (Planas et al., 2018). The stimulation index of single wells (SI) was calculated as follows: SI = (cpm well with peptide) / (Mean cpm wells without peptide). A well was considered positive if SI ≥2.

[2] = system: CSF-infiltrating CD4+ T cells; assay: IFN-γ release (ELISA) of PHA-expanded CSF-infiltrating CD4+ T cells stimulated with peptides presented by autologous PBMCs; assay type: cell-based, human; conditions: peptide 10 µM, 105 MS patients
Procedure: as §1
Release of IFN-γ was measured using the ELISA MAX™ Deluxe Set Human IFN-γ (Biolegend, San Diego, CA, USA) according to the manufacturer's instructions. A well was considered positive if IFN-γ ≥20 pg/ml and a patient was considered positive for a peptide if the mean IFN-γ of the four wells was ≥ 20 pg/ml and at least 3 of the 4 wells were positive.

Substance: MBP 83-99 (ENPVVHFFKNIVTPRT; listed as Homo sapiens) [MBP (83-99), myelin peptide …]
- Positive wells % Proliferation ([1]; well positive if SI ≥2, quadruplicates (420 wells per peptide)): 1.92%
- Positive patients % Proliferation ([1]; patient positive if mean SI of four wells ≥2 and at least 3 of four wells SI ≥2): 0.96%
- Positive wells % IFNγ release ([2]; well positive if IFN-γ ≥20 pg/ml, quadruplicates (420 wells per peptide)): 6.28%
- Positive patients % IFNγ release ([2]; patient positive if mean IFN-γ of four wells ≥20 pg/ml and at least 3 of 4 wells positive): 5.71%
